Reference: ChEMBL document CHEMBL1201862, “PubChem BioAssay data set” (2004)
The source made the active and inactive calls.

Key:
[1] = reduction of Shn3 3'UTR-driven luciferase in osteoblasts – cell-based, Clone20 osteoblasts, firefly luciferase, cherry-picked, dose response (AID 624132); assay type: functional;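 also: firefly luciferase luminescence from reporter carrying the Shn3 3'UTR in osteoblasts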
HEK293 [2] = experiment: SAR Analysis of small molecule inhibitors of T-cell specific antigen receptor-induced NF-kB activation in a HEK-293T cell line using a luminescence assay - Set 2. [Related pubchem assays (depositor defined):AID435003, AID435012, AID489026]; assay type: functional, cell-based; details: Homo sapiens
[3] = loss of viability in HepG2 cells – cell-based, CellTiter-Glo, cherry-picked, cytotoxicity control for Shn3 inhibitor project, dose response (AID 624134); assay type: functional
HEK293 [4] = experiment: membrane integrity loss in HEK cells – cell-based, fluorescence, cytotoxicity control for IDE activator project, dose response (AID 588440); assay type: functional; details: Homo sapiens;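 also: cytotoxicity by LDH release measuring loss of membrane integrity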
[5] = target: SWI/SNF-related matrix-associated actin-dependent regulator of chromatin subfamily A member 2 (Homo sapiens, UniProt P51531); experiment: Luminescence-based cell-based high throughput dose response assay to identify activators of the function of SWI/SNF related, matrix associated, actin dependent regulator of chromatin, subfamily a, member 2 (SMARCA2, BRM).; assay type: functional
Sequence of SWI/SNF-related matrix-associated actin-dependent regulator of chromatin subfamily A member 2 (P51531 whole entry): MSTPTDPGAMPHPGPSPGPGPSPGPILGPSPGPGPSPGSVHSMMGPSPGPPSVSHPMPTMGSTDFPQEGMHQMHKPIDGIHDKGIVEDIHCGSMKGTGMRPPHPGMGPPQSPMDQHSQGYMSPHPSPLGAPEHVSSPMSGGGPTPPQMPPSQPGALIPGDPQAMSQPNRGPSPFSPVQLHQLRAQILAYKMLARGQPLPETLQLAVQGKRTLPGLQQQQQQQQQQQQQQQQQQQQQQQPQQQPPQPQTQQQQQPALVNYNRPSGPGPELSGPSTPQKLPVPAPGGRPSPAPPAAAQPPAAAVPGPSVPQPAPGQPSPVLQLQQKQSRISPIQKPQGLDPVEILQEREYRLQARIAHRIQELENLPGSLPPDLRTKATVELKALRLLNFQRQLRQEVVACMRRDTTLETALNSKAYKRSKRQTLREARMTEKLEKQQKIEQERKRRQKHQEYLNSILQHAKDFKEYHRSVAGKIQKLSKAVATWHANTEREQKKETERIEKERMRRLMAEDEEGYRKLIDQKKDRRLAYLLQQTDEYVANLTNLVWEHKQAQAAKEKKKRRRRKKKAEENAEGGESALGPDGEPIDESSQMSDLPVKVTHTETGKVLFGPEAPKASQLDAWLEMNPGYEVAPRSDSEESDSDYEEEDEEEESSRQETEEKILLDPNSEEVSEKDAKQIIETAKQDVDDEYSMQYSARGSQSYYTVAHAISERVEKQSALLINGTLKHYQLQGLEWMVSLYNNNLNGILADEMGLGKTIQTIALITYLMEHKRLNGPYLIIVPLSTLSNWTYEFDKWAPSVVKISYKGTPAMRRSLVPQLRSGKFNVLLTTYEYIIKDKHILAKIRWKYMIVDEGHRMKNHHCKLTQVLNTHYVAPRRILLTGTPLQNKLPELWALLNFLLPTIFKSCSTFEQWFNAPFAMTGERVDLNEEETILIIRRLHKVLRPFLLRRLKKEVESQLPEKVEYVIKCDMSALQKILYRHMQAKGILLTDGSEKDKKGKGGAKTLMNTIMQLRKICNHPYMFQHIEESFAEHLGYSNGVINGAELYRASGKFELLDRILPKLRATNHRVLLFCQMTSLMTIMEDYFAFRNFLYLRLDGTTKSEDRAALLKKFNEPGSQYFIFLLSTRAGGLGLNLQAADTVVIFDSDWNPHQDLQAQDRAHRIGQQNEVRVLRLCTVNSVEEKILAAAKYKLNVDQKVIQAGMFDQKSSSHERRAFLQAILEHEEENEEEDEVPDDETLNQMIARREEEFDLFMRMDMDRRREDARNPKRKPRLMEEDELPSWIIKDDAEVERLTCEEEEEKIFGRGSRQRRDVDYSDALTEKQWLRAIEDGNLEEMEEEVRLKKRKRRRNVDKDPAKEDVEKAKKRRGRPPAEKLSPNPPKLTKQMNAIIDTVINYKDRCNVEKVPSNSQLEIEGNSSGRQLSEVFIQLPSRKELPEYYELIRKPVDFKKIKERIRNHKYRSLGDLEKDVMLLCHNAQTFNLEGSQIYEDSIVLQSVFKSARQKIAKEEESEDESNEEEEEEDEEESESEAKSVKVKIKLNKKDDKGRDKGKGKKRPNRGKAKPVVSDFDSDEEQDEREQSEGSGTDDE

Insulin-degrading enzyme = target: T1, Insulin-degrading enzyme (Homo sapiens, UniProt P14735); experiment: cellular IDE activation of Abeta substrate cleavage – fluorescence polarization, HEK cells, dose response (AID 588439); assay type: functional, cell-based
T1 sequence (P14735 whole entry): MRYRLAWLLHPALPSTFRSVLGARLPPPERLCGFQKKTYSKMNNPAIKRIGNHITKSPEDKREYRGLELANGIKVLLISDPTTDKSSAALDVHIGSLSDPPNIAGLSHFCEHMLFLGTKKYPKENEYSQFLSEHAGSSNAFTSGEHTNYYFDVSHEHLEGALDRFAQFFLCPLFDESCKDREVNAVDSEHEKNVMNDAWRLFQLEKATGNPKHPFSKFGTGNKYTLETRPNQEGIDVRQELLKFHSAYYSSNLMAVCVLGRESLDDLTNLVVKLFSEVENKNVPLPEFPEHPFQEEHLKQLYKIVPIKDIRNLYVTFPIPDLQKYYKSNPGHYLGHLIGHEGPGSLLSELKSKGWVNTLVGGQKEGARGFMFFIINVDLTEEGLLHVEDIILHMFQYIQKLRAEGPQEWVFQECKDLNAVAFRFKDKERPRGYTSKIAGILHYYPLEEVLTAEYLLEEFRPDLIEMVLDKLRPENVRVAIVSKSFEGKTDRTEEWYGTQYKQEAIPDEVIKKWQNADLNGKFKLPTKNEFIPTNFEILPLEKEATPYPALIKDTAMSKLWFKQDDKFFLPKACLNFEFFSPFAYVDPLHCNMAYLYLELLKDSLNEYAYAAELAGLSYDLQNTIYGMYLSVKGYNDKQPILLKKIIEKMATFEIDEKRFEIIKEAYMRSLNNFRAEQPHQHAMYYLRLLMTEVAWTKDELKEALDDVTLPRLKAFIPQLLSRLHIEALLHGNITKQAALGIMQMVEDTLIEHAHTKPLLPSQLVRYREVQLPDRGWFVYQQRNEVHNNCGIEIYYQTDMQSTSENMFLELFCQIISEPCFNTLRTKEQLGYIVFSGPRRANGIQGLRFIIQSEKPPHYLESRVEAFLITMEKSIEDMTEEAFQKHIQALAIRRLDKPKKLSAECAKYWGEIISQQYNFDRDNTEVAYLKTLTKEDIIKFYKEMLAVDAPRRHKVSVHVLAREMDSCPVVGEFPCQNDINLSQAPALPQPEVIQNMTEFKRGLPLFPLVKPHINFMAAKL

Hexokinase-1 = target: T2, Hexokinase-1 (Homo sapiens, UniProt P19367); experiment: hexokinase 1 activity inhibitors, potency – biochemical, set 2, resazurin fluorescence coupled readout, selectivity assay for HKDC1 inhibitor project, SAR follow-up (AID 588356); assay type: functional
T2 sequence (P19367 whole entry): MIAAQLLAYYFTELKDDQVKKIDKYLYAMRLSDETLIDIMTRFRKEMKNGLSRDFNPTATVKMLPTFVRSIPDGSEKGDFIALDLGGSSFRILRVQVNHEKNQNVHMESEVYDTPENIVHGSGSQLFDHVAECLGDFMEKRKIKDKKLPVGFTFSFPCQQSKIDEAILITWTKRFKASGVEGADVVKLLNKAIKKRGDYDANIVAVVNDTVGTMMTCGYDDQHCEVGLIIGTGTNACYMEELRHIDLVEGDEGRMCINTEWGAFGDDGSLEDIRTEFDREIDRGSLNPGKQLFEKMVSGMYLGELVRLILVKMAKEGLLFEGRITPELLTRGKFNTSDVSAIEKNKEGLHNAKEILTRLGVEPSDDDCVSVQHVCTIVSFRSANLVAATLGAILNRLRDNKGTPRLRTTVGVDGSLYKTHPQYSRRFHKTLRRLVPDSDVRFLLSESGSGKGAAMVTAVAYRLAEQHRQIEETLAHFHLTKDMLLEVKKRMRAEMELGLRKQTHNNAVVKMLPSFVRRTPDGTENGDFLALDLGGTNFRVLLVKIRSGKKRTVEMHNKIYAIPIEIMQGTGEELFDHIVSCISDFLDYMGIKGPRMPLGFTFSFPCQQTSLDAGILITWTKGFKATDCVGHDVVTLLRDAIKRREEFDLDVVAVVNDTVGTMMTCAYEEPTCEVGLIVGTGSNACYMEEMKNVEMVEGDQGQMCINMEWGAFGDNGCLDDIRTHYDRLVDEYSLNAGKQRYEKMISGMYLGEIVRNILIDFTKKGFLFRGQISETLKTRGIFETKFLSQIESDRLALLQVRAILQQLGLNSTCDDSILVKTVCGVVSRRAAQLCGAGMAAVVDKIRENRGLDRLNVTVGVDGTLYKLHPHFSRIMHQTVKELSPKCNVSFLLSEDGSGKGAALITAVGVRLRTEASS

Question: Which results are given for `CCCCC(=O)NC(c1ccc(Cl)cc1)c1ccc2cccnc2c1O` (configuration not stated)?
Answer: AC50 [1]: 0.772 µM (active); IC50 (HEK293 [2]): 4.57 µM (active); AC50 [3]: 1.71 µM (active)

Question: With `COc1ccc2noc3c2c1C(=O)c1ccccc1-3` as the compound, how does the IC50 (HEK293 [4]) read?
Answer: The IC50 was > 89.2 µM (inactive).

Question: What about the EC50 [5] of the same compound?
Answer: Its EC50 is > 91.2 µM (inactive).

Question: And the EC50 (Insulin-degrading enzyme)?
Answer: The EC50 was > 54.7 µM (inactive).

Question: Which IC50 (Hexokinase-1) does the source give for `CCc1ccc2c(c1)C(NC(C)=O)C(=O)N2CCN1CCOCC1` (configuration not stated) here?
Answer: The IC50 was > 80 µM (inactive).
